Data as given in ChEMBL document CHEMBL3120117, “Synthesis and antitumor activity evaluation of chrysin derivatives” (Eur J Med Chem, 2014).

Key:
H22 [1] = test: Cytotoxicity against mouse H22 cells assessed as growth inhibition by MTT assay; format: functional, cell-based
H22 [2] = test: Cell cycle arrest in mouse H22 cells assessed as accumulation at G1 phase at 1 mmol/l after 24 hrs by propidium iodide staining based flow cytometry (reference value: 14.38 +/-0.54%); format: functional
H22 [3] = test: Cell cycle arrest in mouse H22 cells assessed as accumulation at S phase at 1 mmol/l after 24 hrs by propidium iodide staining based flow cytometry (reference value: 70.21 +/-0.38%); format: functional
H22 [4] = test: Cell cycle arrest in mouse H22 cells assessed as accumulation at G2/M phase at 1 mmol/l after 24 hrs by propidium iodide staining based flow cytometry (reference value: 15.42 +/-0.33%); format: functional
H22 [5] = test: Cytotoxicity against mouse H22 cells assessed as growth inhibition by MTT assay relative to chrysin; format: functional

SMILES	IC50 (H22 [1]) [mM]	Activity (H22 [2]) [%]	Activity (H22 [3]) [%]	Activity (H22 [4]) [%]	growth inhibition (GI) (H22 [5]) [%]
CCOC(=O)COc1cc(OCC(=O)OCC)c2c(=O)cc(-c3ccccc3)oc2c1	4.03				
O=C(Oc1cc(O)c2c(=O)cc(-c3ccccc3)oc2c1)c1ccccc1	1.71				
O=C(Oc1cc(OC(=O)c2ccccc2)c2c(=O)cc(-c3ccccc3)oc2c1)c1ccccc1	3.66				
CCOC(=O)COc1cc(OC(=O)c2ccccc2)cc2oc(-c3ccccc3)cc(=O)c12	3.22				
O=C(O)COc1cc(O)cc2oc(-c3ccccc3)cc(=O)c12	2.47				
CC(=O)Oc1cc(O)c2c(=O)cc(-c3ccccc3)oc2c1	4.29				
CC(=O)Oc1cc(OC(C)=O)c2c(=O)cc(-c3ccccc3)oc2c1 [CHRYSIN DIACETATE]	0.141	6.22	57.44	36.34	91.56
O=c1cc(-c2ccccc2)oc2cc(O)cc(O)c12 [CHRYSIN]	1.67	12.97	69.91	17.13	
O=C(O)COc1cc(OCC(=O)O)c2c(=O)cc(-c3ccccc3)oc2c1 [FLAVODIC ACID]	3.12				
